In this test the target is HTR4 (Homo sapiens, UniProt Q13639). The following applies: agonist; pH 7.0, 30 °C.
HTR4, sequence (Q13639 whole entry): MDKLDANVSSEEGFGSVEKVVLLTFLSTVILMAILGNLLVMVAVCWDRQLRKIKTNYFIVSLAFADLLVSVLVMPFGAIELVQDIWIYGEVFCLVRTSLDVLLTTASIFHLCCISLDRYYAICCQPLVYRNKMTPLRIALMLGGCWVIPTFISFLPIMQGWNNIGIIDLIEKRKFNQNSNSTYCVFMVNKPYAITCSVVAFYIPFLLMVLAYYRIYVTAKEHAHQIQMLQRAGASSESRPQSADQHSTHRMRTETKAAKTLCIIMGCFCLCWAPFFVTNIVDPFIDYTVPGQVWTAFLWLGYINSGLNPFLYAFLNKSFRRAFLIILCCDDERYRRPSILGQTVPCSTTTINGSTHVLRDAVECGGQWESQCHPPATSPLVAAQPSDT

For the compound `NCCc1c[nH]c2ccccc12` [tryptamine], the EC50 result was “tryptamine agonism of HTR4 and ADRA2B”.

For the origin of these results see doi:10.1101/2020.01.16.909325v1 (biorxiv, 2020).
